We go through 79 molecules from the METLIN SMRT retention time set (Domingo-Almenara et al. 2019).

A short description of this data set: gradient 5% acetonitrile 3 min, to 50% in 2 min, to 85% in 15 min, held 3 min, 100 µL/min. The note with it: column: Zorbax Extend-C18 2.1 x 50 mm; eluents: water / acetonitrile, 0.1% formic acid. In outline:
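Retention time was recorded from adduct peaks, which were picked computationally and each inspected manually. Pure standards ran in mixtures of ~100 molecules on HPLC coupled to a quadrupole time-of-flight mass spectrometer, in positive and negative ionization mode, through a Zorbax Extend-C18 column (2.1 × 50 mm, 1.8 μm) at 100 μL/min. Eluents were water and acetonitrile, each with 0.1% formic acid.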
In turn, `Cc1noc(-c2cc(=O)n(CC(=O)Nc3cccc(Cl)c3)c3ccccc23)n1` yielded an RP-LC retention time of 927 s.
For the molecule `CCN1C(=O)c2cc(C(=O)NCCc3ccccc3)nn2CC1(C)C(=O)NC1CCCC1` (centres undefined), the RP-LC retention time stood at 791 s.
In the case of `Cc1ccccc1Cn1nc2ccc(S(=O)(=O)N3CCC(C)CC3)cn2c1=O` it was 1060 s; in that of `CCc1ccc(NC(=O)c2cc(=O)n(C)c3c2c(=O)n(C)c(=O)n3C)cc1`, 870 s; in that of `CCCCC(=O)Nc1ccc2nc(N3CCN(c4ccccc4)CC3)cc(C(=O)O)c2c1`, 672 s.
With `O=C(Nc1ccc(Cl)cc1)C(=O)c1cn(CC(=O)N2CCOCC2)c2ccccc12`, the RP-LC retention time was found to be 959 s.
As to `CN1Cc2c(N)cccc2C(c2ccccc2)C1` (centres undefined), the RP-LC retention time is 678 s.
In the case of `COc1cccc(CNC(=O)C2(C)CCCN(C(=O)Nc3cc(OC)ccc3OC)C2)c1` (centres undefined) it was 844 s; in that of `CCOC(=O)C1CCCN(S(=O)(=O)c2cccc3cccnc23)C1` (centres undefined), 798 s; in that of `O=C(NC1CCN(c2cc(-c3cccs3)[nH]n2)C1)c1ccc(F)cc1Cl` (centres undefined), 726 s.
In the case of `Cc1ccc(Nc2c(-c3ccc(C)cc3)nc3cccc(C)n23)cc1` it was 782 s; in that of `CCOC(=O)c1sc(NC(=O)C2CC2)nc1-c1ccccc1`, 942 s.
Take `O=C(Nc1cc(C(F)(F)F)cc(C(F)(F)F)c1)Nc1c(Br)cc(Br)cc1-c1nn[nH]n1`: the RP-LC retention time was 1130 s.
Molecule `COc1ccc(Br)cc1CNC(=O)C1CCCN(C(=O)c2[nH]c(C)cc2C)C1` (centres undefined) had an RP-LC retention time of 808 s.
In the case of `Fc1ccc(-c2nc(-c3cn(Cc4cccc(F)c4)nn3)no2)cc1` it was 1010 s; in that of `O=C(CN1C(=O)NC(c2ccccc2Cl)C2=C1COC2=O)NCc1ccccc1Cl` (centres undefined), 801 s; in that of `O=C(Nc1c(F)cccc1F)N1CC(c2nc(C3CC3)no2)C1`, 670 s.
In the case of `Cc1ccc(C(=O)NCc2nc(-c3ccc4c(c3)nnn4C)no2)cc1` it was 731 s; in that of `CN1C(=O)c2cccn2CC1C(=O)N1CCCCC1` (centres undefined), 614 s; in that of `O=C(NCCc1nc2cccnc2n1-c1ccccc1)C1CCCCC1`, 730 s.
In the case of `OC(CNCc1ccc(-c2cc(Cl)ccc2Cl)o1)c1ccccc1` (centres undefined) it was 762 s.
Take `COc1ccc(-c2nc(-c3cn(-c4cccc(Cl)c4)nn3)no2)cc1OC`: the RP-LC retention time worked out at 1040 s.
In the case of `O=C(c1ccc(Br)o1)N1CCC(c2cnn(-c3cccc(F)c3)c2)CC1` it was 1000 s; in that of `Cc1oc2ccn(Cc3ccc(F)cc3)c(=O)c2c1C(=O)NCc1cccs1`, 1030 s; in that of `CCc1ccc(C2=C(C)C(N3CCCN(C(=O)NC4CCCC4)CC3)=NS2(=O)=O)cc1`, 865 s.
In the case of `Cc1ccc(C)n1-c1nnc(N2CCCC(C(=O)NCCc3c[nH]c4ccccc34)C2)s1` (centres undefined) it was 950 s; in that of `CCOC(=O)C1C(=O)C(C(=O)OCC)C(c2ccccc2)NC1c1ccccc1` (centres undefined), 832 s; in that of `Cc1ccc(Nc2c(-c3ccccc3O)nc3ncccn23)cc1C`, 951 s.
In the case of `Nc1nc(-c2ccccc2Cl)nn1C(=O)C1CC1` it was 827 s.
For `COc1cc(NC(=O)CN2C(=O)CCc3cc(Br)ccc32)cc(OC)c1`, the RP-LC retention time came out at 898 s.
In the case of `CCN1CCCC1CNC(=O)C1c2ccccc2C(=O)N(CCOC)C1c1ccc(F)cc1` (centres undefined) it was 640 s; in that of `Cc1ccc(NC(=O)N2CC(c3nc(CCOCC4CCCC4)no3)C2)cc1C`, 1060 s; in that of `CCCCN1CCC(N(C(=O)NCCc2ccccc2)C2CCOCC2)CC1`, 671 s.
In the case of `Cc1cc(C(=O)N2CC(F)(F)C[C@H]2c2nc(C3CC3)no2)on1` it was 809 s; in that of `CC(C)NC(=O)N1CCC[C@H]1c1nc(-c2ccc(F)cc2)n[nH]1`, 678 s; in that of `Cc1ccc(N2C(=O)CC(Nc3ccc(N4CCOCC4)cc3)C2=O)c(Br)c1` (centres undefined), 618 s.
In the case of `Cc1ccc(C)c(NC(=O)N2CCN(c3ccc(=O)n(-c4ccccc4)n3)CC2)c1` it was 820 s; in that of `Cc1cc(-c2ccc3c(c2)CCN3C(=O)Cc2ccc(F)cc2)on1`, 1000 s.
`O=C(NCCc1ccco1)c1nc(Nc2ccc(F)cc2)c2ccccc2n1` showed an RP-LC retention time of 784 s.
In the case of `COc1ccc(S(=O)(=O)N2CCCC(C(=O)NCCc3ccc(OC)c(OC)c3)C2)cc1C` (centres undefined) it was 870 s.
In the case of `CCNC(=O)N1CCN(c2ccc(-c3noc(C4CC(=O)N(c5ccc(C)c(C)c5)C4)n3)cc2)CC1` (centres undefined) it was 885 s; in that of `CCn1ccc2c(cc(C(=O)Nc3cc(OC)c(OC)c(OC)c3)n2C)c1=O`, 715 s.
In the case of `COc1ccc(-c2cn3cccnc3n2)cc1NC(=O)c1cccc(Cl)c1` it was 740 s; in that of `CC1(C)CC(=O)c2cn(-c3ccccc3)c(=O)c(C(=O)N3CCN(c4ccccn4)CC3)c2C1`, 622 s; in that of `COC(=O)c1cnc(N2CCN(c3cccc(Cl)c3)CC2)c2ccccc12`, 1350 s.
As to `Cc1nc2cc(-c3ccccc3)nn2c(C)c1CCC(=O)N1CCN(c2ccccn2)CC1`, the RP-LC retention time was 652 s.
In the case of `COCc1cc(=O)n(CC(=O)Nc2ccc(C(C)C)cc2)c(N2CCOCC2)n1` it was 960 s.
On to `O=C(Cn1cccc(-c2nc(-c3ccc(Br)cc3)no2)c1=O)Nc1ccc2c(c1)OCO2`, for which the RP-LC retention time was found to be 935 s.
Molecule `CCOC(=O)c1noc2nc(C)nc(NCC3CCN(Cc4ccc(C)cc4)CC3)c12` gave an RP-LC retention time of 705 s.
In the case of `Cc1ccc2c(Nc3ccc4c(c3)OCCO4)c(C(=O)N3CCCC(C)C3)cnc2n1` (centres undefined) it was 645 s.
In the case of `O=C(NCCC1CCN(C(=O)Nc2cc(F)ccc2F)CC1)c1ccco1` it was 758 s; in that of `Cc1nc(CCNS(=O)(=O)Cc2cccc(Cl)c2)no1`, 792 s.
`O=S(=O)(Nc1ccc(Cn2cncn2)cc1)c1ccc(F)cc1` registered an RP-LC retention time of 701 s.
In the case of `CCn1cc(-c2ccc(Cl)cc2)cc1C(=O)N1CCCCC1` it was 1150 s.
In the case of `CC1CCN(CCCNS(=O)(=O)c2ccccc2-c2nc(-c3ccccc3)no2)CC1` it was 733 s; in that of `CCOc1ccccc1NC(=O)N1C[C@H](c2nc(-c3cccnc3)no2)[C@@H](C)C1`, 937 s; in that of `CCOc1ccc(Cl)cc1S(=O)(=O)N1CCC(C(=O)NCc2ccc3c(c2)OCO3)CC1`, 922 s.
In the case of `Cc1ccccc1NC(=O)c1cn2c(n1)CCCC2` it was 586 s; in that of `O=S(=O)(CCc1noc(-c2nccc3ccccc23)n1)c1ccccc1`, 890 s.
`COc1ccc(C(=O)N2CCN(c3cc(-c4cccs4)[nH]n3)CC2)c(OC)c1` gave an RP-LC retention time of 739 s.
`O=C(NCc1ccc(N2CCCCC2)cc1)c1cn2c(n1)CSCC2`: the RP-LC retention time was 577 s.
In the case of `Cc1cc(C)nc(N2CCN(c3cc(C)nc4c(-c5ccc(F)cc5)cnn34)CC2)n1` it was 1190 s; in that of `O=C(CSc1ccc(N2CCN(c3ccc(F)cc3)CC2)nn1)NCC1CCCO1` (centres undefined), 689 s; in that of `COC(=O)c1cccc(NC(=O)N(C)CCc2noc(C3CCCCC3)n2)c1`, 937 s.
`CC(=O)Nc1ccc(NC(=O)Cn2cccc(-c3nc(-c4ccc(Cl)cc4)no3)c2=O)cc1` showed an RP-LC retention time of 937 s.
`Cc1nnc(-c2cccn2CC(=O)NCc2cccc(Br)c2)o1` gave an RP-LC retention time of 767 s.
In the case of `Cc1cc(Cl)ccc1OCc1nc(-c2ccc3c(c2)nnn3CCC(=O)N2CCCC2)no1` it was 1050 s; in that of `O=C(Nc1ccc(N2CCN(C3CCCC3)C2=O)nc1)c1cccnc1`, 638 s.
In the case of `COc1ccc(NC(=O)Cn2c(=O)n(-c3ccccc3)c(=O)c3c2cc(C)n3C)c(OC)c1` it was 791 s; in that of `COc1ccc(Cl)cc1NC(=O)Cn1cc2c(n1)CCCC2`, 1020 s; in that of `Cc1cc(=O)n(CC(=O)Nc2cccc(Cl)c2)c(-c2ccccc2)n1`, 1080 s.
In the case of `CC(=O)N1CCc2cc(N3CC(C(=O)N4CCC5(CC4)OCCO5)CC3=O)ccc21` (centres undefined) it was 620 s.
The molecule `COc1ccccc1-c1nnc(-c2cc(S(=O)(=O)N3CCOCC3)ccc2Cl)o1` gave an RP-LC retention time of 902 s.
In the case of `O=C(NCCc1ccncc1)C1CC(=O)N(c2n[nH]c3cc(Br)ccc23)C1` (centres undefined) it was 601 s; in that of `CCOc1ccc2nc(C(=O)NC(C)(C)C)cn2n1`, 802 s; in that of `CC(=O)N1CCc2cc(C)c(S(=O)(=O)NCc3ccco3)cc21`, 742 s.
The molecule `CN1C(=O)Cc2cc(C(=O)NC3CCCCC3)ccc21` had an RP-LC retention time of 692 s.
`CS(=O)(=O)N1CC(C(=O)Nc2ccccc2-c2ccccc2)Oc2ccccc21` (centres undefined) gave an RP-LC retention time of 1090 s.
In the case of `Cn1c(=O)n(C)c2cc(S(=O)(=O)NCc3ccco3)ccc21` it was 636 s.
